Experimental data published in patent US11865126B2, “Method for treating anxiety disorders, headache disorders, and eating disorders with psilocybin” (priority 2019, dated 2024).

Test system: healthy subjects
Assay: Social Value Orientation (SVO)
Type: in vivo, human
Description: In some embodiments, the Social Value Orientation (SVO) test is utilized to evaluate the safety and/or efficacy of psilocybin. The SVO Slider Measure has 6 primary items with 9 secondary (and optional) items. All of the items have the same general form. Each item is a resource allocation choice over a well-defined continuum of joint payoffs.
The following list of outcome measures are non-exhaustive. • a. The short-term change from Baseline (Day −1 [Visit 2]) to Day 7 (Visit 5) in cognitive measures of attention, spatial and working memory and executive function was measured by a composite score of the CANTAB Panel (Spatial Working Memory [SWM], Rapid Visual Information Processing [RVP], Paired Associates Learning [PAL]). • b. The short-term change from Baseline (Day −1 [Visit 2]) to Day 7 (Visit 5) in Social Cognition Panel scales (Pictorial Empathy Test [PET], Reading the Mind in the Eyes Test [RMET], Toronto Empathy Questionnaire [TEQ], Social Value Orientation [SVO], Scale of Social Responsibility [SSR]). • c. The change from Baseline (Day −1 [Visit 2]) to Day 28 (Visit 6) in cognitive measures of attention, spatial and working memory and executive function as measured by a composite score of the CANTAB Panel (SWM, RVP, PAL). • d. The long-term change from Baseline (Day −1 [Visit 2]) to Day 84 (Visit 7) in Social Cognition Panel scales (PET, RMET, TEQ, SVO, SSR). • e. Dose-related differences between cognitive effects of psilocybin at Baseline (Day −1 [Visit 2]), Day 7 (Visit 5) and Day 28 (Visit 6), as measured by a composite score of the CANTAB Panel (SWM, RVP, PAL). • f. Dose-related differences between psychological effects of psilocybin at Baseline (Day −1 [Visit 2]), Day 7 (Visit 5) and Day 84 (Visit 7), as measured by Social Cognition Panel scales (PET, RMET, TEQ, SVO, SSR). • g. Differences in cognitive effects of psilocybin between psilocybin-naïve and experienced subjects at Baseline (Day −1 [Visit 2]), Day 7 (Visit 5) and Day 28 (Visit 6), as measured by a composite score of the CANTAB Panel (SWM, RVP, PAL). • h. Differences in Positive and Negative Affect Schedule (PANAS) after study drug administration on Day 0 (Visit 3). • i. Differences between psilocybin and placebo in the Emotion Recognition Test (ERT), Intra-Extra Dimensional Set Shift (IED), One Touch Stockings (OTS), Verbal Fluency and Digit Span Forward at Day 7 (Visit 5). • j. A composite score of the CANTAB Panel, including the following tests: • i. Spatial Working Memory (SWM) (performed at Visit 2, Visit 5, and Visit 6). • ii. Rapid Visual Information Processing (RVP) (performed at Visit 2, Visit 5, and Visit 6). • iii. Paired Associates Learning (PAL) (performed at Visit 2, Visit 5, and Visit 6). • k. Cognitive Flexibility Panel • i. Emotion Recognition Task (ERT) (performed at Visit 5). • ii. Intra-Extra Dimensional Set Shift (IED) (performed at Visit 5). • iii. One Touch Stockings (OTS) (performed at Visit 5). • iv. Verbal Fluency (performed at Visit 5). • v. Digit Span Forward (performed at Visit 5). • l. Five Dimension Altered States of Consciousness questionnaire (5D-ASC) (performed at Visit 3). • m. PANAS (performed at Visit 2 and Visit 3). • n. NEO-Five Factor Inventory (NEO-FFI) (performed at Visit 2, Visit 5, and Visit 7). • o. Symptom Checklist-90 item (SCL-90) (performed at Visit 2, Visit 5, and Visit 7). • p. Life Changes Inventory (LCI): The LCI measures changes in attitudes and values after near-death experiences often used to evaluate personal transformation following spiritually oriented experiences and practices. (performed at Visit 5 and Visit 7). • q. Social Cognition Panel scales • i. Pictorial Empathy Test (PET) (performed at Visit 2, Visit 5, and Visit 7). • ii. Reading the Mind in the Eyes Test (RMET) (performed at Visit 2, Visit 5, and Visit 7). • iii. Social Value Orientation (SVO) (performed at Visit 2, Visit 5, and Visit 7). • iv. Toronto Empathy Questionnaire (TEQ) (performed at Visit 2, Visit 5, and Visit 7). • v. […]

With `CN(C)CCc1c[nH]c2cccc(OP(=O)(O)O)c12` [psilocybin] the “SVO angle change from baseline, LS mean difference Psilocybin 10 mg - Placebo” value (Day 7, MMRM) was 3.4, the “SVO angle change from baseline, LS mean difference Psilocybin 25 mg - Placebo” value (Day 7, MMRM) was 2.1 and the “SVO angle change from baseline, LS mean difference Psilocybin 25 mg-10 mg” value (Day 7, MMRM) was −1.3. For the same compound, the “SVO type change from baseline, LS mean difference Psilocybin 10 mg - Placebo” value (Day 7, MMRM) was 0.1, the “SVO type change from baseline, LS mean difference Psilocybin 25 mg - Placebo” value (Day 7, MMRM) was 0.1 and the “SVO type change from baseline, LS mean difference Psilocybin 25 mg-10 mg” value (Day 7, MMRM) was −0.0. The “SVO angle change from baseline, LS mean difference Psilocybin 10 mg - Placebo” value (Day 84, MMRM) was 3.4, the “SVO angle change from baseline, LS mean difference Psilocybin 25 mg - Placebo” value (Day 84, MMRM) was 2.4 and the “SVO angle change from baseline, LS mean difference Psilocybin 25 mg-10 mg” value (Day 84, MMRM) was −1.0. For the same compound, the “SVO type change from baseline, LS mean difference Psilocybin 10 mg - Placebo” value (Day 84, MMRM) was 0.1, the “SVO type change from baseline, LS mean difference Psilocybin 25 mg - Placebo” value (Day 84, MMRM) was 0.1 and the “SVO type change from baseline, LS mean difference Psilocybin 25 mg-10 mg” value (Day 84, MMRM) was −0.0.
